Data on 1 compound can be found in paper PMC10882974 (Environmental Science & Technology, 2024).

Data set [1] concerns C. elegans. Briefly: toxicokinetics experiment III: effect of E. coli on uptake. It is filed as in vivo, Caenorhabditis elegans. The note with it: Figure 4B-D (experiments III and IV). The protocol: (§1) In between cycles, the samples were kept on ice. […] Samples were stored at −20 °C until further analysis.
(§2) All parameters and units are summarized in SI A3.

Test in data set [2]: as above
The note with it: 10 mg/L, exp III, 10 mg/L fluoxetine, 10 h, read-out: k2NF elimination rate constant of norfluoxetine (converted). The data set is classed as in vivo, Caenorhabditis elegans. As for the experimental part:
as §1, §2

For data set [3], the system named is C. elegans. Briefly: toxicokinetics experiment I: elimination after 1 h exposure. The data set is classed as in vivo, Caenorhabditis elegans. The note with it: after 1 h exposure; no E. coli. As for the experimental part: as §1, §2
Test in data set [4]: as above
The data set is classed as in vivo, Caenorhabditis elegans. The note with it: whole organism (worm homogenate). As for the experimental part:
as §1, §2

Data set [5] deals with C. elegans. Kind of data set: norfluoxetine uptake and coexposure with fluoxetine (SI A5). It is filed as in vivo, Caenorhabditis elegans. As to conditions: same exposure concentration; SI A5, Figure S9.
Method: Alternatively, there could be a concentration-dependent increase in metabolism over time resulting from enzyme induction. This was modeled with an extra metabolism rate constant ke that was included after 10 h (eq 1a and Figure 4C,D).
Data set [6] concerns C. elegans. Briefly: general activity test (WMicrotracker). It is filed as in vivo, Caenorhabditis elegans. As for the experimental part: Two quadrants were spiked with 2 μL of an attractant (0.5% diacetyl), and two contained 2 μL water as a control.[30] After 45 min, during which the worms could move freely, the dish was moved to 4 °C to immobilize the worms, and the number of worms in each quadrant was counted. The general activity was measured with a WMicrotracker from Phylumtech. This system measured the collective movement in multiwell plates by detecting the number of interruptions of an infrared beam over time. The total number of interruptions over a 30 min period was calculated with the Wmicrotracker software. […] For all data points, the mean and standard deviation were plotted using Graphpad Prism 9.4. The ordinary differential equations and parameters fitted in Matlab were also entered in Graphpad Prism to simulate the internal concentrations over time.

In data set [7] the test system is C. elegans. Kind of data set: calculated excretion rate of norfluoxetine from exposure medium concentrations (experiments III and IV, SI A6). It is filed as in vivo, Caenorhabditis elegans. An excerpt:
Norfluoxetine was also detected in the exposure medium for experiments III and IV and increased over time, indicating the elimination of norfluoxetine. […] However, this does allow for a calculation of the excretion rate of norfluoxetine, as shown in SI A6. […] This could be explained by the saturation of binding sites for norfluoxetine at these higher concentrations, but this still requires further investigation.

For data set [8], the system named is C. elegans. Briefly: toxicokinetics experiment IV: long-term exposure of L4 and adult worms. The note with it: 20 mg/L fluoxetine. The protocol: (§3) Three replicates of 1500 pooled C. elegans were used for each time point for each concentration. For experiments with E. coli, the OD600 was kept constant at 0.4.
(§4) C. elegans containing pellets were resuspended in 500 μL of methanol, and 0.6 g of […] ceramic beads (1.4 mm) were added to the vial. The samples were homogenized three times for 20 s using a Minilys homogenizer (Bertin Technologies) at middle speed. In between cycles, the samples were kept on ice. […] The supernatant was transferred to a glass tube, the pellet (including the ceramic beads) was resuspended in 500 μL of methanol, and the homogenization, sonication, and centrifugation cycle was repeated twice more to result in a three-step extraction. The total combined supernatant was concentrated to dryness under a gentle nitrogen stream and redissolved in 500 μL of methanol to a final concentration of the IS of 1 μM. Samples were stored at −20 °C until further analysis.
(§5) A one-compartment model was selected since chemical concentrations could only be measured for the whole organism. […] All parameters and units are summarized in SI A3.
(§6) The kinetic bioconcentration factor[33] was calculated with eq 3, and the ke and kt were only included when applicable to the respective experiment [drawing 4] 3
(§7) Model fitting was performed by adding the ordinary differential equations to the BYOM modeling package version 6.3 (http://www.debtox.info/byom.html) in Matlab R2022b.[34] […] Optimization was performed with the Melder–Mead Simplex Search method, minimizing the minus log-likelihood. […] Model script deviations from the BYOM model can be found in SI A9.

Test in data set [9]: as above
As to conditions: whole organism (worm homogenate), iv, 20 mg/L, k2NF elimination rate constant of norfluoxetine, exp IV, with E. coli, 20 mg/L fluoxetine, 48 h. The protocol: as §3, §4, §5, §6, §7

Data set [10] has as its system C. elegans. Briefly: chemotaxis assay (diacetyl attractant). The data set is classed as in vivo, Caenorhabditis elegans. As for the experimental part: Two quadrants were spiked with 2 μL of an attractant (0.5% diacetyl), and two contained 2 μL water as a control.[30] After 45 min, during which the worms could move freely, the dish was moved to 4 °C to immobilize the worms, and the number of worms in each quadrant was counted. For all data points, the mean and standard deviation were plotted using Graphpad Prism 9.4. The ordinary differential equations and parameters fitted in Matlab were also entered in Graphpad Prism to simulate the internal concentrations over time.

For data set [11], the system named is E. coli OP50. Kind of data set: uptake and metabolism of fluoxetine in E. coli OP50 and medium. Details: species or system Escherichia coli. The note with it: 10 mg/L fluoxetine, E. coli OD600 1.0.
[12] abbreviates: at 10 mg/L, p < 0.01 Bonferroni post hoc.

SMILES strings stand for the structures. ≈ marks a conversion by molar mass, not a printed value.

By EC50 is commonly meant the concentration that produces a half-maximal response. Consider `NCCC(Oc1ccc(C(F)(F)F)cc1)c1ccccc1` (stereo not drawn) [norfluoxetine], for which the “elimination rate (k2NF)” value in data set [1] was “around 0.12 /h”. Further, in [1], the “transformation rate kt (norfluoxetine formation)” value was “around 0.06 1/h”. In addition, the k el in [2] (whole organism (homogenate of pooled worms), no E. coli) was 2.78e-08 s⁻¹; in data set [2] (whole organism (worm homogenate), with E. coli, k1, k2FLX, k2NF, kt constrained (eq 1b)) it was 2.78e-08 s⁻¹; in data set [2] (whole organism (worm homogenate), with E. coli, no constraint) it was 3.33e-05 s⁻¹; in [4] (1 h exposure (fluoxetine 0.5, 5, 20 mg/L; norfluoxetine 20 mg/L), then clean medium, no E. coli, read-out: k2sum elimination rate constant (+95% CI) (converted)) it was 0.000375 s⁻¹; in [4] (1 h exposure, then clean medium, slow phase after 1 h, no E. coli, read-out: k2slow elimination rate constant (+95% CI) (converted)), 2.36e-05 s⁻¹; in [4] (calculated from k2sum and k2slow, read-out: k2fast elimination rate constant (converted)), 0.000351 s⁻¹. The k el in data set [9] was 3.06e-05 s⁻¹. Besides, the “elimination over time after transfer to clean medium” value in [3] was “still present in small amounts after 24 h”. Also, in [5], the “internal concentrations of norfluoxetine compared to fluoxetine” value is reported as “around 70%”. In addition, the “activity compared to fluoxetine” value in data set [6] (setting [12]) is listed as “significantly lower”. Also, the 50% effective concentration (EC50) came to 10.1 µg/mL (≈ 34.2 µM) in data set [6] (nominal concentrations, S medium with E. coli OD600 0.4, 24 h exposure, read-out: EC50 for the effect on activity (+95% confidence intervals)) and 14.2 µg/mL (≈ 48.2 µM) in data set [10] (nominal concentrations, 72 h exposure from L1, S medium with E. coli OD600 0.4, read-out: EC50 for chemotaxis (+95% confidence intervals)). Besides, the “calculated excretion rate of norfluoxetine” value in data set [7] (20 mg/L of fluoxetine exposure) is “around 0.5 /h”; in [7] (0.5 and 10 mg/L of fluoxetine), “around 0.1 /h”. The “calculated excretion rate of norfluoxetine, increased value” in data set [7] (20 mg/L of fluoxetine exposure, value it increased to) is on record as 0.83. In data set [8] (Figure 4D), the “norfluoxetine internal concentration relative to fluoxetine at steady state” value is given as “around half of the fluoxetine concentrations”. Also, in data set [8] (steady state after 10 h), the “norfluoxetine internal concentration at steady state” value is given as “approximately 80 mg/kgnem”. For the same compound, in data set [10] (setting [12]), the “chemotaxis index compared to fluoxetine” value is “significantly lower”. For the same compound, the “norfluoxetine concentrations in medium and bacteria exposed to fluoxetine” value in [11] was “negligible”.
